Results: paper PMC8498006 (Advances in Redox Research, 2021)

Experiments:
[1] = biological target: SARS-CoV-2 M^pro (MBP-tagged main protease) (Severe acute respiratory syndrome coronavirus 2, UniProt P0DTD1); assay: biochemical; settings: for suppressive effect on the protease activity at 20 µM: 20 µM phytochemical, 0.5 µM enzyme, 37°C 30 min
[2] = biological target: T1, SARS-CoV-2 M^pro (MBP-cleaved) (Severe acute respiratory syndrome coronavirus 2, UniProt P0DTD1); assay: Intact MS of M^pro after incubation with phytochemicals; type: binding; settings: 0.5 µM enzyme; for covalent adduct on M^pro by intact MS: 1 µM phytochemical, 37°C 30 min
[3] = biological target: T1, SARS-CoV-2 M^pro (MBP-cleaved); assay: Enzyme activity of MBP-cleaved M^pro with EGCG/myricetin, with or without GSH; type: biochemical; settings: 0.5 µM enzyme
[4] = biological target: T1, SARS-CoV-2 M^pro (MBP-cleaved); assay: Quinone detection on blotted membrane by redox-cycling; type: binding; settings: 2.5 µM phytochemical, 1 mM GSH
[5] = biological target: T1, SARS-CoV-2 M^pro (MBP-cleaved); assay: Free thiols in the enzyme by biotin incorporation; settings: iodoacetyl-LC-biotin labelling

C=CCN=C=S [AITC, Allyl isothiocyanate]
IC50 [1]: 33.3 µM

OC[C@H]1O[C@@H](Oc2cc3c(O)cc(O)cc3[o+]c2-c2ccc(O)c(O)c2)[C@H](O)[C@@H](O)[C@@H]1O.[Cl-] [cyanidine-3-glucoside, Cyanidine-3-glucoside chloride]
suppressive effect on the protease activity at 20 µM [1]: did not show suppressive effect

O=c1cc(-c2ccccc2)oc2cc(O)c(O)c(O)c12 [baicalein]
covalent adduct on M^pro by intact MS [2]: covalent adducts were not observed

S=C=NCCc1ccccc1 [PEITC, phenethyl isothiocyanate]
IC50 [1]: 14.2 µM

O=c1c(O)cc([C@H]2Oc3cc(O)cc(O)c3C[C@H]2O)cc2c([C@H]3Oc4cc(O)cc(O)c4C[C@H]3O)cc(O)c(O)c12 [theaflavin]
IC50 [1]: 6.1 µM
suppressive effect on the protease activity at 20 µM [1]: considerably inhibited
covalent adduct on M^pro by intact MS [2]: One or two molecule(s)

O=c1c(O)c(-c2cc(O)c(O)c(O)c2)oc2cc(O)cc(O)c12 [myricetin]
enzyme activity with increasing concentration ([3]; 0–5 µM, substrate reaction 15 min): decreased accordingly
enzyme activity loss in the presence of GSH ([3]; 2.5 µM phytochemical, 1 mM GSH, 30 min): canceled
suppressive effect on the protease activity at 20 µM [1]: considerably inhibited
dose dependence of adduction by intact MS ([2]; 0–5 µM): dose-dependently observed
covalent adduct on M^pro by intact MS [2]: One or two molecule(s)
quinone staining in the presence of GSH [4]: canceled
free thiols in the M^pro with increasing concentration [5]: decreased

C[C@@H]1O[C@@H](OC[C@H]2O[C@@H](Oc3c(-c4ccc(O)c(O)c4)oc4cc(O)cc(O)c4c3=O)[C@H](O)[C@@H](O)[C@@H]2O)[C@H](O)[C@H](O)[C@H]1O [rutin, quercetin-3-O-rutinoside]
suppressive effect on the protease activity at 20 µM [1]: did not show suppressive effect

myricitrin
covalent adduct on M^pro by intact MS [2]: covalent adducts were not observed

Oc1cc(O)cc(/C=C/c2ccc(O)c(O)c2)c1 [piceatannol]
IC50 [1]: 13.8 µM
covalent adduct on M^pro by intact MS [2]: One or two molecule(s)

O=c1c(O)c(-c2ccc(O)c(O)c2)oc2cc(O)cc(O)c12 [quercetin]
suppressive effect on the protease activity at 20 µM [1]: did not show suppressive effect

O=c1c(O)c(-c2ccc(O)cc2)oc2c(O)c(O)cc(O)c12 [herbacetin]
IC50 [1]: 19.2 µM
covalent adduct on M^pro by intact MS [2]: covalent adducts were not observed

COc1ccc(-c2cc(=O)c3c(O)c(OC)c(O[C@@H]4O[C@H](CO[C@@H]5O[C@@H](C)[C@H](O)[C@@H](O)[C@H]5O)[C@@H](O)[C@H](O)[C@H]4O)cc3o2)cc1 [pectolinarin]
suppressive effect on the protease activity at 20 µM [1]: did not show suppressive effect

S=C=NCc1ccccc1 [BITC, benzyl isothiocyanate]
IC50 [1]: 4.5 µM
suppressive effect on the protease activity at 20 µM [1]: considerably inhibited
